Like-named read-outs stand apart in the source and are kept apart here. *1 amine or outer side, *2 acyl side, *3 side chain or, on linkers, in order; H or OH if unused. Where a SMILES comes first, the peptide text is derived from it. Bridges are numbered along the chain shown (N, C = ends). Roman numbers before positions name the chains, in order. [ ]: non-standard residue; d: D form. Actinocin(9to1) = Cc1c2oc3c(C)ccc(C(=O)[*:1])c3nc-2c(C(=O)[*:2])c(N)c1=O; NMeV = CN[C@H](C(=O)O)C(C)C; Sar = CNCC(=O)O
Legend:
[1] = test system: pieces of ovary from the scallop; conditions: cited from earlier work
[2] = test system: ovarian pieces of the scallop; conditions: isolated ovarian pieces in vitro; cited from earlier work
[3] = test system: Japanese scallop; conditions: in vivo; cited from earlier work
[4] = test system: C. gigas; conditions: cited from earlier work
[5] = test system: triploid C. virginica oysters; assay: Triploid oysters: sex, gonadal condition and oocyte yield by stripping after estradiol injection; format: in vivo, Crassostrea virginica; conditions: 150 ng/gm wet weight
Method: In trials with 261 triploid C. virginica oysters that began on May 31 in Grand Isle, La., the oysters were notched and were then injected with 150 ng/gm wet weight estradiol 17β. Ten days later, the animals were sacrificed, and their sex and gonadal condition were determined. Of the 261 animals tested, 13 were confirmed female triploids. These 13 triploid females yielded a total of 6 million oocytes by traditional stripping techniques, which is not a high yield in comparison to diploid animals, but was high compared to untreated triploids.
For comparison, on May 6 of the following year, 165 animals selected from the same original cohort of triploid oysters were sacrificed without the estradiol treatment. […] While these observations were made one year apart, both sets of observations involved triploid animals sharing the same diploid parents. The estradiol-treated group was 2 years old at the time of observation, while the untreated group one year later was 3 years old. […] However, in support of the effectiveness of the treatment, it may be noted that the three-year-old, untreated animals were sacrificed at a time when the population of mature and spawning diploid animals in the same location was at its peak, whereas the two-year-old, estradiol-treated animals were examined when the number of mature and spawning diploids was in decline.

[6] = test system: oysters; assay: Presence of prominent genital canals 14 days after estradiol-17β injection; format: in vivo, Crassostrea virginica; conditions: after 14 days, May
Method: In another experiment, conducted in May in Grand Isle, La., animals were injected either with 0 (control), 37.5 ng/g, or 74 ng/g of estradiol-17β. After 14 days, animals were evaluated using the traditional methodology of assaying the presence of prominent genital canals, indicative of mature animals that are ready to spawn. These animals were not subjected to serotonin treatment, but rather were sacrificed for histological examination to establish a somatic-gonadal ratio index. […] Data analysis was performed using GraphPad InStat software. The data reported in Table 2 are conservative, in the following sense: During the trial period, the water temperature decreased from 23° C. to 18° C., and then increased to 22° C., all within a thirty-six hour period. Such a temperature change is alone often sufficient to trigger spawning in the wild.

[7] = test system: C. virginica; assay: Spawning response of estradiol-17β-injected oysters to serotonin stimulus after normal spawning season; format: in vivo, Crassostrea virginica
Method: A series of initial experiments assayed the response of C. virginica to low doses of estradiol-17β. These trials were undertaken in August and September, at the end of the normal maturation and spawning season of this species on the Gulf coast. Experiments typically ran for two weeks following the injection of a single dose of estradiol-17β into the […] muscle. (Injections were made through a small hole drilled in the shell.) The estradiol dosage for each animal was calculated based on wet body tissue mass of the whole animal, as estimated from its shell length. (These estimates were based on linear regression from measurements of shell lengths and wet body mass from 62 mixed-sex oysters that had been harvested in July). […] (The normal physiological level is 1.5 ng per gram wet weight. So a 5× dosage is 7.5 ng per gram wet weight, […]) Responses to the estradiol treatment were based on visual assessment of gonadal condition, on the response of the excised whole animal to a solution of 0.01 mM 5-hydroxytryptamine during a 45 min treatment period, and on histological examination of samples of the oyster taken through the body mass containing the gonadal region.
The three trials summarized in Table 1 were analyzed using a yes/no non-parametric chi-squared analysis.

[8] = test system: zebra mussels (Dreissena polymorpha); conditions: cited from earlier work
[9] = test system: scallop Patinopecten yessoensis; conditions: intragonadal injection; cited from earlier work
[10] = Aug. 18, injection 75 ng per gram wet weight
[11] = Sep. 15, injection 7.5 ng per gram wet weight
[12] = Sep. 22, injection 15 ng per gram wet weight

Question: Which release of eggs ([1]; pieces of ovary in vitro) does the source give for CC[C@@H](CO)NC(=O)[C@@H]1C=C2c3cccc4c3c(cn4C)C[C@H]2N(C)C1 [Methysergide] here?
Answer: inhibited the release of eggs

Question: With CCCCC[C@H](O)/C=C/[C@H]1[C@H](O)CC(=O)[C@@H]1C/C=C\CCCC(=O)O [PGE2, prostaglandin E2] as the molecule, how does the “effect on serotonin-induced egg release” value ([1]; pieces of ovary in vitro) read?
Answer: enhanced the effect of serotonin

Question: And the release of eggs ([1]; pieces of ovary in vitro)?
Answer: did not induce egg release

Question: For Cc1c2oc3c(C)ccc(C(=O)N[C@@H]4C(=O)N[C@H](C(C)C)C(=O)N5CCC[C@H]5C(=O)N(C)CC(=O)N(C)[C@@H](C(C)C)C(=O)O[C@@H]4C)c3nc-2c(C(=O)N[C@@H]2C(=O)N[C@H](C(C)C)C(=O)N3CCC[C@H]3C(=O)N(C)CC(=O)N(C)[C@@H](C(C)C)C(=O)O[C@@H]2C)c(N)c1=O [actinomycin D] (I: T[dV]P[Sar][NMeV] / II: T[dV]P[Sar][NMeV]; ester I:1-I:C, II:1-II:C; linker I:N-II:N via Actinocin(9to1)), which “effect on the accelerating effect of estradiol-17β pre-incubation” value [2] is on record?
Answer: inhibited

Question: What does the source list for CC(=O)Oc1ccccc1C(=O)O [aspirin]?
Answer: effect on serotonin-induced egg release ([1]; PGE2 also present): did not inhibit serotonin-induced egg release; effect on the accelerating effect of estradiol-17β pre-incubation [2]: inhibited

Question: Which “increase of PGE2 and PGF2α in the ovary” value [3] does the source give for C[C@]12C[C@H]3S[C@H]3C[C@@H]1CC[C@@H]1[C@@H]2CC[C@]2(C)[C@@H](O)CC[C@@H]12 [epitostanol] here?
Answer: inhibit the increase of PGE2 and PGF2α

Question: Which “response time following injection” value [4] does the source give for C[C@]12CC[C@@H]3c4ccc(OC(=O)c5ccccc5)cc4CC[C@H]3[C@@H]1CC[C@@H]2O [estradiol-3-benzoate] here?
Answer: about 50 days

Question: And the gonadal-somatic index ratio ([4]; high dose injected into the gonad)?
Answer: promoted an increase in the gonadal-somatic index ratio

Question: For C[C@]12CC[C@@H]3c4ccc(O)cc4CC[C@H]3[C@@H]1CC[C@@H]2O [estradiol-17β], which “total oocytes yielded by traditional stripping” value ([5]; 13 triploid females, ten days after injection) is on record?
Answer: 6 million oocytes

Question: And the “confirmed female triploids among animals tested” value ([5]; of 261 triploid oysters, untreated cohort of 165 had none)?
Answer: 13

Question: What about the “number with prominent genital canals” value ([6]; dose 1 group, 37.5 ng/g) of the same molecule?
Answer: 11

Question: And the “number without prominent genital canals” value ([6]; dose 1 group, 37.5 ng/g)?
Answer: 38

Question: And the “percent with prominent genital canals” value ([6]; dose 1 group, 37.5 ng/g)?
Answer: 22%

Question: And the “percent without prominent genital canals” value ([6]; dose 1 group, 37.5 ng/g)?
Answer: 78%

Question: And the “number with prominent genital canals” value ([6]; dose 2 group, 74 ng/g)?
Answer: 18

Question: What about the “number without prominent genital canals” value ([6]; dose 2 group, 74 ng/g) of the same molecule?
Answer: 35

Question: And the “percent with prominent genital canals” value ([6]; dose 2 group, 74 ng/g)?
Answer: 34%

Question: What about the “percent without prominent genital canals” value ([6]; dose 2 group, 74 ng/g) of the same molecule?
Answer: 66%

Question: And the “Animals not responding to 5-hydroxytryptophan stimulus - %” value (shortened to “Animals not responding … - %”) [7, 10]?
Answer: 42%

Question: And the “Animals not responding to 5-hydroxytryptophan stimulus - no.” value (from here on “Animals not responding … - no.”) [7, 10]?
Answer: 6

Question: What about the “Animals responding to 5-hydroxytryptophan stimulus - %” value (shortened to “Animals responding … - %”) [7, 10] of the same molecule?
Answer: 58%

Question: What about the “Animals responding to 5-hydroxytryptophan stimulus - no.” value (from here on “Animals responding … - no.”) [7, 10] of the same molecule?
Answer: 8

Question: And the “Animals not responding … - %” value [7, 11]?
Answer: 60%

Question: What about the “Animals not responding … - no.” value [7, 11] of the same molecule?
Answer: 12

Question: And the “Animals responding … - %” value [7, 11]?
Answer: 40%

Question: And the “Animals responding … - no.” value [7, 11]?
Answer: 8

Question: And the “Animals not responding … - %” value [7, 12]?
Answer: 65%

Question: What about the “Animals not responding … - no.” value [7, 12] of the same molecule?
Answer: 21

Question: And the “Animals responding … - %” value [7, 12]?
Answer: 35%

Question: What about the “Animals responding … - no.” value [7, 12] of the same molecule?
Answer: 11

Question: For CNCCC(Oc1ccc(C(F)(F)F)cc1)c1ccccc1 (stereo not drawn) [fluoxetine], which induction of spawning [8] is on record?
Answer: can induce spawning in both sexes

Question: With COCCCC/C(=N\OCCN)c1ccc(C(F)(F)F)cc1 [fluvoxamine] as the molecule, how does the induction of spawning [8] read?
Answer: can induce spawning in both sexes

Question: With COc1ccc2c(c1)c(CC(=O)O)c(C)n2C(=O)c1ccc(Cl)cc1 [indomethacin] as the molecule, how does the “effect on serotonin-induced egg release” value ([1]; PGE2 also present) read?
Answer: did not inhibit serotonin-induced egg release

Question: For Fc1ccc([C@@H]2CCNC[C@H]2COc2ccc3c(c2)OCO3)cc1 [paroxetine], which induction of spawning [8] is on record?
Answer: can induce spawning in both sexes

Question: With NCCc1c[nH]c2ccc(O)cc12 [serotonin, 5-hydroxytryptamine] as the molecule, how does the spawning [9] read?
Answer: stimulated spawning in both sexes

Question: What about the release of eggs ([1]; pieces of ovary in vitro) of the same molecule?
Answer: the number of released eggs increased significantly

Question: And the induction of spawning [8]?
Answer: induce both oocyte meiotic maturation and spawning

Question: Which “effect on serotonin-induced egg release” value ([1]; pieces of ovary in vitro) does the source give for prostaglandin F2α [PGF2α] here?
Answer: significantly inhibited the effect of serotonin
